Assay results taken from ChEMBL document CHEMBL4507268 (2021).

Key:
[1] = target: Protein-tyrosine kinase 6 (Homo sapiens) (UniProt Q13882); settings: Compound concentration 1000.0 nM
[2] = target: Cyclin-dependent kinase 5 (Homo sapiens) (UniProt Q00535); settings: Compound concentration 1000.0 nM
[3] = target: Dual specificity protein kinase CLK1 (Homo sapiens) (UniProt P49759); settings: Compound concentration 1000.0 nM
[4] = target: Tyrosine-protein kinase CSK (Homo sapiens) (UniProt P41240); settings: Compound concentration 1000.0 nM
[5] = target: T1, Serine/threonine-protein kinase 17B (Homo sapiens) (UniProt O94768); settings: Compound concentration 1000.0 nM
T1 sequence (whole entry): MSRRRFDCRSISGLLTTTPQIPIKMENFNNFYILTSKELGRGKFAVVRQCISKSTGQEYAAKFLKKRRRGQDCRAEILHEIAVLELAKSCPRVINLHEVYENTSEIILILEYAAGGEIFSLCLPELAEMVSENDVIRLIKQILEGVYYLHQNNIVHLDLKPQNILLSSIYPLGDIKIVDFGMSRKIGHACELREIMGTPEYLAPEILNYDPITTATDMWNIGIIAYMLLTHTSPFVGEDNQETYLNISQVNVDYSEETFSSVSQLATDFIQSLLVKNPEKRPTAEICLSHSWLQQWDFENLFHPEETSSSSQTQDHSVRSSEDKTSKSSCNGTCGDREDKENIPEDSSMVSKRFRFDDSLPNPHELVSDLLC

[6] = target: T2, Dual specificity tyrosine-phosphorylation-regulated kinase 2 (Homo sapiens) (UniProt Q92630); settings: Compound concentration 1000.0 nM
T2 sequence (whole entry): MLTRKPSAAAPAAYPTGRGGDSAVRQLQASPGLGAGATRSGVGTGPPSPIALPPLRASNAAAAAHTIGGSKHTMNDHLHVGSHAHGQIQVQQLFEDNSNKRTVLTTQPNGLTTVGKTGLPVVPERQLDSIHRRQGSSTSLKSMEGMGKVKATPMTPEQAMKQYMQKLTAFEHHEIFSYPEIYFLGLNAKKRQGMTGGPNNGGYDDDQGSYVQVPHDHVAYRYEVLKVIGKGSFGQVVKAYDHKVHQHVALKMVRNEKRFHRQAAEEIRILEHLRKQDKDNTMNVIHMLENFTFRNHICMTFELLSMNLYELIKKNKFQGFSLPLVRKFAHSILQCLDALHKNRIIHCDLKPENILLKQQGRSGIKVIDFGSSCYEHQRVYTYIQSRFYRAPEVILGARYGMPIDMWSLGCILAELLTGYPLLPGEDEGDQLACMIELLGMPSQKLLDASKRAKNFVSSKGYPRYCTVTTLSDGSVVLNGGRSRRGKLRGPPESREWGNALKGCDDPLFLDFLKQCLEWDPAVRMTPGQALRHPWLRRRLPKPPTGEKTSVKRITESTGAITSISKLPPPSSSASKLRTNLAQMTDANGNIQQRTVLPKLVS

[7] = target: Ephrin type-A receptor 7 (Homo sapiens) (UniProt Q15375); settings: Compound concentration 1000.0 nM
[8] = target: Fibroblast growth factor receptor 1 (Homo sapiens) (UniProt P11362); settings: Compound concentration 1000.0 nM
[9] = target: Fibroblast growth factor receptor 4 (Homo sapiens) (UniProt P22455); settings: Compound concentration 1000.0 nM
Chain of Fibroblast growth factor receptor 4 (Homo sapiens) (P22455 22-802 limits assumed): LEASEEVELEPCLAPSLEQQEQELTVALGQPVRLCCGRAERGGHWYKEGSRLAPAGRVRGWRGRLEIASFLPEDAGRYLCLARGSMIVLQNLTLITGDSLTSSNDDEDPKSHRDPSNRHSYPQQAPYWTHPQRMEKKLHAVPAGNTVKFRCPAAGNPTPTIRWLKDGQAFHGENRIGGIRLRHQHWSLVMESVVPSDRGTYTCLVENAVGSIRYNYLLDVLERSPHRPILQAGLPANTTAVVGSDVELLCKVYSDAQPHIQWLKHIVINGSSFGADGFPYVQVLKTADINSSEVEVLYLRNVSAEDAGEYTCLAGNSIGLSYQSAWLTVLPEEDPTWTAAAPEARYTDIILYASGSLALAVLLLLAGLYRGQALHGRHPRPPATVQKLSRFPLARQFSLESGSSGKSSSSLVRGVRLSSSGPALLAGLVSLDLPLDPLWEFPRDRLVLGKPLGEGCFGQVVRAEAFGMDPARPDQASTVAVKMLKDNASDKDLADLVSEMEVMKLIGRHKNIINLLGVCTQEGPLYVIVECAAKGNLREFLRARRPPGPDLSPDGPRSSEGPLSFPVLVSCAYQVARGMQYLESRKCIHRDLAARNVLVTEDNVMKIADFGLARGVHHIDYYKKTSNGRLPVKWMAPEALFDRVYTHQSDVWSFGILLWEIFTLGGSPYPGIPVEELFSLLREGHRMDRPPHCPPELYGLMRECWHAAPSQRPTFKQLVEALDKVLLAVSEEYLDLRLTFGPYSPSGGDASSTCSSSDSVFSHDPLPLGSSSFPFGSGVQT

[10] = target: Glycogen synthase kinase-3 beta (Homo sapiens) (UniProt P49841); settings: Compound concentration 1000.0 nM
[11] = target: MAP/microtubule affinity-regulating kinase 3 (Homo sapiens) (UniProt P27448); settings: Compound concentration 1000.0 nM
[12] = target: T3, Serine/threonine-protein kinase D3 (Homo sapiens) (UniProt O94806); settings: Compound concentration 1000.0 nM
T3 sequence (whole entry): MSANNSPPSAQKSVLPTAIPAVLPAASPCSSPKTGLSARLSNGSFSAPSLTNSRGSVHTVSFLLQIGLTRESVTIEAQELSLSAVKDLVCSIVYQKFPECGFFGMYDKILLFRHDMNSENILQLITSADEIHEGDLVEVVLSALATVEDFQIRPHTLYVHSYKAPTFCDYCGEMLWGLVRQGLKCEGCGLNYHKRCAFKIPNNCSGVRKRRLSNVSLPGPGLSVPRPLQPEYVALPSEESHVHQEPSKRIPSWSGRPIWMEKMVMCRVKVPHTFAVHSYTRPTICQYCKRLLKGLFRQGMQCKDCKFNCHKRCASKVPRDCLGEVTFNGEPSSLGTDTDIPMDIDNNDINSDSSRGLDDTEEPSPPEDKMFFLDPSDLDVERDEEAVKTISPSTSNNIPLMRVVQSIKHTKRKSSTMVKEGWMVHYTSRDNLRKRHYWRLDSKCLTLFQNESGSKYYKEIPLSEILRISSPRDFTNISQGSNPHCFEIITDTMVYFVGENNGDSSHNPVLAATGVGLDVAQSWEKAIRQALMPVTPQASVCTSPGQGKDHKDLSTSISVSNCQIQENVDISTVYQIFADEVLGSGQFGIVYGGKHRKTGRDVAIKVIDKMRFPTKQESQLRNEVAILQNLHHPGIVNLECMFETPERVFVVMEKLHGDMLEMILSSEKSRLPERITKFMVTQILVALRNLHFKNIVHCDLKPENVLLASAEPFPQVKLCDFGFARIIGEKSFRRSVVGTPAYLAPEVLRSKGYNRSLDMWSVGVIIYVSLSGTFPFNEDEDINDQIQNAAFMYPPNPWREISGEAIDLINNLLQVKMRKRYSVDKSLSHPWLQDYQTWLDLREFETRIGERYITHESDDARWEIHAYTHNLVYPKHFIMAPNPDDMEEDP

[13] = target: Tyrosine-protein kinase Srms (Homo sapiens) (UniProt Q9H3Y6); settings: Compound concentration 1000.0 nM
Chain of Tyrosine-protein kinase Srms (Homo sapiens) (Q9H3Y6 whole entry): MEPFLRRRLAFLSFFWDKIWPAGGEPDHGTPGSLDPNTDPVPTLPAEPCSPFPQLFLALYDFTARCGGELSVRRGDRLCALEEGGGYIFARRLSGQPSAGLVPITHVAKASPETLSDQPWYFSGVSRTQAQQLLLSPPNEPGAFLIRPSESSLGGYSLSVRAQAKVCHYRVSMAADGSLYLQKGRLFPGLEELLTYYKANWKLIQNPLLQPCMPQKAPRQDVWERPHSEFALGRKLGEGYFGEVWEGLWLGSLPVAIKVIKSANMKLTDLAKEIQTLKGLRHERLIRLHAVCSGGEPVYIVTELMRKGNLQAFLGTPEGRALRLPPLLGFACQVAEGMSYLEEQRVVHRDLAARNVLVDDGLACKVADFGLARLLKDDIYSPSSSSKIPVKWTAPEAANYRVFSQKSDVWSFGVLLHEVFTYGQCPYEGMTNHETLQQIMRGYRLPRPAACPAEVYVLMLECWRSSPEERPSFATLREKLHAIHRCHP

[14] = target: SRSF protein kinase 3 (Homo sapiens) (UniProt Q9UPE1); settings: Compound concentration 1000.0 nM
Chain of SRSF protein kinase 3 (Homo sapiens) (Q9UPE1 whole entry): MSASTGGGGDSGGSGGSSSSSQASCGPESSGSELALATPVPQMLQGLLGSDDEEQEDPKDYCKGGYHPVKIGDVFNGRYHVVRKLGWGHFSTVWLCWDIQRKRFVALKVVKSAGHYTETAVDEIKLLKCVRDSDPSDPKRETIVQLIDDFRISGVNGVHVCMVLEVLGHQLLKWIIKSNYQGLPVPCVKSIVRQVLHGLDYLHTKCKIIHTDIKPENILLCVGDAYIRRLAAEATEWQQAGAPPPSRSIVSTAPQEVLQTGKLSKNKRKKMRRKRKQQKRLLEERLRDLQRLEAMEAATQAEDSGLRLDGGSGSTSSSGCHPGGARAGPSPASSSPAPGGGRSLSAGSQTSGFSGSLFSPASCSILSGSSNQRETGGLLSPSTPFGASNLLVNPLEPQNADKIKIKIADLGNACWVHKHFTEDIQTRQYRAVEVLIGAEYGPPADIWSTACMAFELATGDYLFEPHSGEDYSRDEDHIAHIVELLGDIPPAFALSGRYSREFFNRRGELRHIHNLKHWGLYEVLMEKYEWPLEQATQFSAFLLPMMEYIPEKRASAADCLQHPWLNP

[15] = target: BDNF/NT-3 growth factors receptor (Homo sapiens) (UniProt Q16620); settings: Compound concentration 1000.0 nM
Chain of BDNF/NT-3 growth factors receptor (Homo sapiens) (Q16620 32-822 limits assumed): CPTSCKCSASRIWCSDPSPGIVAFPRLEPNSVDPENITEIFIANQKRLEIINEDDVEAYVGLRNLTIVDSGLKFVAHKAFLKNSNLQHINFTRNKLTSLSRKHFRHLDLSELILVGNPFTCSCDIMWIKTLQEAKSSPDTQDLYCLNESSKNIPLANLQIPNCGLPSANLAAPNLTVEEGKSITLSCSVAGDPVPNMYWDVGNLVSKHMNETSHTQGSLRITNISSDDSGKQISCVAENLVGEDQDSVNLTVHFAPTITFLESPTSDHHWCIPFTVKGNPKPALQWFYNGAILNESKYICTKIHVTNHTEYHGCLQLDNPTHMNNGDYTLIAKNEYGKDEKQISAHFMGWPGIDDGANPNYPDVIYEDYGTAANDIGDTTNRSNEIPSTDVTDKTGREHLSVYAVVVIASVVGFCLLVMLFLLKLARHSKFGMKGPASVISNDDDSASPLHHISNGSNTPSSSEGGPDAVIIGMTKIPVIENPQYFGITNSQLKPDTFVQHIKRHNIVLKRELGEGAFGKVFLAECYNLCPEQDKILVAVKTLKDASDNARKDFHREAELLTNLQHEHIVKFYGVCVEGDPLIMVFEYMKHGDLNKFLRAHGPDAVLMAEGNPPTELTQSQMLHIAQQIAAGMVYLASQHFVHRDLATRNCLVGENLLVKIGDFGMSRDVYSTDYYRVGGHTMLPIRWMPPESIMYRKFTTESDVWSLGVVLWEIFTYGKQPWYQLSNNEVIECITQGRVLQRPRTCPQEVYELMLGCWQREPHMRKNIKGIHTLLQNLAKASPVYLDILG

[16] = target: Non-receptor tyrosine-protein kinase TYK2 (Homo sapiens) (UniProt P29597); settings: Compound concentration 1000.0 nM
[17] = target: Vascular endothelial growth factor receptor 2 (Homo sapiens) (UniProt P35968); settings: Compound concentration 1000.0 nM
Chain of Vascular endothelial growth factor receptor 2 (Homo sapiens) (P35968 whole entry): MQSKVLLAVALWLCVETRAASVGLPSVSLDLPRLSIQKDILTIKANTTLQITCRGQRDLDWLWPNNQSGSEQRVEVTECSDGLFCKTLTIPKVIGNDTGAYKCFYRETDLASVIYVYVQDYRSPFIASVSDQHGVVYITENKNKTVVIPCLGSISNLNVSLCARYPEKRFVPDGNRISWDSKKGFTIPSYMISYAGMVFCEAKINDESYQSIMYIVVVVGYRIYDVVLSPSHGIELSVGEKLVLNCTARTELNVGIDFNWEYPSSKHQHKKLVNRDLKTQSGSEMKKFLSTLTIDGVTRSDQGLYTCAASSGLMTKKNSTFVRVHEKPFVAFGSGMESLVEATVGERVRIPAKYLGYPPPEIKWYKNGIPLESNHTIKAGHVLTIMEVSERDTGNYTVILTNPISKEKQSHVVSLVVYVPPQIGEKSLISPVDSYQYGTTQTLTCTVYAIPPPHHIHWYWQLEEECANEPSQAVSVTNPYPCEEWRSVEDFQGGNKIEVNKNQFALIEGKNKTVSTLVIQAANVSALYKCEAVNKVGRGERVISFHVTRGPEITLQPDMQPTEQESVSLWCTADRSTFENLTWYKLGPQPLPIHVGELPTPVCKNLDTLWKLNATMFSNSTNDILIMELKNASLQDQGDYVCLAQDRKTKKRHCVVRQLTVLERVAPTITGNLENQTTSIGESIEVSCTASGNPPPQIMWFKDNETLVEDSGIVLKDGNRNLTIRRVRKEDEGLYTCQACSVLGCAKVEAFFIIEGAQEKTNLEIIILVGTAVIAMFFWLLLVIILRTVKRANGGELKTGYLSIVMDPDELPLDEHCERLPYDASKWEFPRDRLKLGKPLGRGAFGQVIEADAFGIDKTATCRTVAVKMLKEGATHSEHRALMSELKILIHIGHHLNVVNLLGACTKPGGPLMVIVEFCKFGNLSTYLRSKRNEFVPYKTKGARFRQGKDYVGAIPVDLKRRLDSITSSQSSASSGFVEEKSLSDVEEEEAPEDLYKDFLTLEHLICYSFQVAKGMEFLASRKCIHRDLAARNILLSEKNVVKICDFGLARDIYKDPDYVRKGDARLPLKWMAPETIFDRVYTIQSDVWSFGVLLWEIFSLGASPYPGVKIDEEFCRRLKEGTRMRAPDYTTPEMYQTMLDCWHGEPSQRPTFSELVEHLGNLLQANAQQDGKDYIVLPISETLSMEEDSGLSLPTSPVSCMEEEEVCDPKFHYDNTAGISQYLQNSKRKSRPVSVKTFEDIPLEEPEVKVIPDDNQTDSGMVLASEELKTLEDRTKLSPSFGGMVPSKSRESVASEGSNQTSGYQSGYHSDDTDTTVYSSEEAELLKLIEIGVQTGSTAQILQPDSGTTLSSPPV

[18] = target: Histamine H3 receptor (Homo sapiens) (UniProt Q9Y5N1); settings: Compound concentration 10.0 uM
Chain of Histamine H3 receptor (Homo sapiens) (Q9Y5N1 whole entry): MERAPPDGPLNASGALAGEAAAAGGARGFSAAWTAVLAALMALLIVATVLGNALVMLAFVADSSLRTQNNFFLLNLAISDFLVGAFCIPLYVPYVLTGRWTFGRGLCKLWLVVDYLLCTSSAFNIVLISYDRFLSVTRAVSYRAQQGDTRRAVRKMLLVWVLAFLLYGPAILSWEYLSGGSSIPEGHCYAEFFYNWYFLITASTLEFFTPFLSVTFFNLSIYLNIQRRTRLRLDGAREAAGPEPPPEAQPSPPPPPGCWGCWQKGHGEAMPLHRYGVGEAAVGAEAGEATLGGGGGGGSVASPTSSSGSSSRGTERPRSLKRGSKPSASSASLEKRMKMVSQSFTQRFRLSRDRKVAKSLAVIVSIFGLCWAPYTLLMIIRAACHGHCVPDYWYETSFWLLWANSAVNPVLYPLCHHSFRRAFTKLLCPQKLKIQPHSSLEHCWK

[19] = target: GABA-A receptor; anion channel (Rattus norvegicus) (UniProt O09028+P15431+P18506+P18508+P19969+P20236+P23574+P23576+P28471+P28473+P30191+P62813+P63079+P63138+Q91ZM7+Q9ES14); settings: Compound concentration 10.0 uM

Chain of Dual specificity protein kinase CLK1 (Homo sapiens) (P49759 whole entry, looked up): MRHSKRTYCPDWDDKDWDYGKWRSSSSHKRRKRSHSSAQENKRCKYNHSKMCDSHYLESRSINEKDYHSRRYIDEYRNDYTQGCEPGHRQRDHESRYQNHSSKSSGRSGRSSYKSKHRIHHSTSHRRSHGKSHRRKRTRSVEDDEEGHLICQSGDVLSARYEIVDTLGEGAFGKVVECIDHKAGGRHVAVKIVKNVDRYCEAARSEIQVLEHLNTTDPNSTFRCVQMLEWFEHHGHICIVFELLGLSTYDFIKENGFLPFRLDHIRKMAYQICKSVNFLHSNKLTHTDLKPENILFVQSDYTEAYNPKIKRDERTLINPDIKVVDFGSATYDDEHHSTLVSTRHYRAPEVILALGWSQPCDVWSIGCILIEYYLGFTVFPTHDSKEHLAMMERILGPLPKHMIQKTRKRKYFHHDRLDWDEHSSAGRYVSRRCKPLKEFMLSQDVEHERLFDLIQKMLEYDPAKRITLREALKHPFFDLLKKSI

Cc1nc(C2CCN(C(=O)c3ccc(OC(F)(F)F)cc3N)CC2)c2ncc(N3CCN(C)CC3)cc2n1 [BAY-693]
inactive: residual activity [1] 100% | residual activity [2] 88% | residual activity [3] 100% | residual activity [4] 100% | residual activity [5] 99% | residual activity [6] 100% | residual activity [7] 92% | residual activity [8] 100% | residual activity [9] 100% | residual activity [10] 100% | residual activity [11] 89% | residual activity [12] 100% | residual activity [13] 100% | residual activity [14] 100% | residual activity [15] 100% | residual activity [16] 100% | residual activity [17] 93% | inhibition [18] 38.4% | inhibition [19] -1.64%

CN1CCN(c2cnc3c(C4CCN(C(=O)c5ccc(OC(F)(F)F)cc5N)CC4)ncnc3c2)CC1 [BAY-885]
inactive: residual activity [1] 100% | residual activity [2] 87% | residual activity [3] 100% | residual activity [4] 100% | residual activity [5] 86% | residual activity [6] 100% | residual activity [7] 100% | residual activity [8] 100% | residual activity [9] 100% | residual activity [10] 100% | residual activity [11] 93% | residual activity [12] 100% | residual activity [13] 100% | residual activity [14] 100% | residual activity [15] 100% | residual activity [16] 93% | residual activity [17] 100% | inhibition [18] 36.9% | inhibition [19] 0.38%
